The values that follow come from patent EP0971917B1, “THIAZOLIDINEDIONE AND OXAZOLIDINEDIONE DERIVATIVES HAVING ANTIDIABETIC, HYPOLIPIDAEMIC AND ANTIHYPERTENSIVE PROPERTIES” (DR. REDDY'S RESEARCH FOUNDATION, priority 1997, dated 1998).

The test deals with C57BL/KsJ-db/db mice. As to the kind of experiment: Blood sugar and triglycerides lowering activity in db/db mice (in vivo). Particulars: male C57BL/KsJ-db/db mice, 10 mg/kg/day, oral gavage daily for 6 days; for Maximum reduction in blood glucose level (%): plasma glucose, glucose oxidase method; for Triglyceride lowering (%): plasma triglycerides. An excerpt:
Mutation in colonies of laboratory animals and different sensitivities to dietary regimens have made the development of animal models with non-insulin dependent diabetes associated with obesity and insulin resistance possible. Genetic models such as db/db and ob/ob (See Diabetes, (1982) 31(1) : 1- 6) in mice and fa/fa and zucker rats have been developed by the various laboratories for understanding the pathophysiology of disease and testing the efficacy of new antidiabetic compounds (Diabetes, (1983) 32: 830-838; Annu. Rep. Sankyo Res. Lab. (1994) 46 : 1-57). The homozygous animals, C57 BL/KsJ-db/db mice developed by Jackson Laboratory, US, are obese, hyperglycemic, hyperinsulinemic and insulin resistant (J. Clin. Invest., (1990) 85 : 962-967), whereas heterozygous are lean and normoglycemic. In db/db model, mouse progressively develops insulinopenia with age, a feature commonly observed in late stages of human type II diabetes when blood sugar levels are insufficiently controlled. The state of pancreas and its course vary according to the models. Since this model resembles that of type II diabetes mellitus, the compounds of the present invention were tested for blood sugar and triglycerides lowering activities.
Male C57BL/KsJ-db/db mice of 8 to 14 weeks age, having body weight range of 35 to 60 grams, procured from the Jackson Laboraotory, USA, were used in the experiment The mice were provided with standard feed (National Institute of Nutrition, Hyderabad, India) and acidified water, ad libitum. The animals having more than 300 mg / dl blood sugar were used for testing. The number of animals in each group was 4.
The random blood sugar and triglyceride levels were measured by collecting blood (100 µl) through orbital sinus, using heparinised capillary in tubes containing EDTA which was centrifuged to obtain plasma. The plasma glucose and triglycerides levels were measured spectrometrically, by glucose oxidase and glycerol-3-PO4 oxidase/peroxidase enzyme (Dr. Reddy's Lab. Diagnostic Division Kits, Hyderabad, India) methods respectively. On 6th day the blood samples were collected one hour after administration of test compounds / vehicle for assessing the biological activity.
Test compounds were suspended on 0.25 % carboxymethyl cellulose and administered to test group at a dose of 10 mg to 100 mg / kg through oral gavage daily for 6 days. The control group received vehicle (dose 10 ml / kg).

On to `Cc1nn(CCOc2ccc(CC3SC(=O)NC3=O)cc2)c(=O)c2ccccc12` (stereo not shown) [Example 6, 5-[4-[2-[4-Methyl-1-oxo-1,2-dihydro-phthalazin-2-yl]ethoxy]phenylmethyl] thiazolidin-2,4-dione], for which the “Maximum reduction in blood glucose level (%)” value is reported as 61% and the “Triglyceride lowering (%)” value is recorded as 40%.
As for `O=C1NC(=O)C(=Cc2ccc(OCCN3OCc4ccccc4C3=O)cc2)S1` [Example 11, 5-[4-[2-[4-Oxo-3,4-dihydro-1H-2,3-benzoxazin-3-yl]ethoxy]phenylmethylene]thiazolidin-2,4-dione], the “Maximum reduction in blood glucose level (%)” value was determined as 37% and the “Triglyceride lowering (%)” value came out at 60%.
